Experimental data as given in patent US8975265B2, “Substituted imidazo[1,2-a]pyrimidines and —pyridines” (Bayer Intellectual Property GmbH, priority 2010, dated 2015).
Like-named read-outs stand apart in the source and are kept apart here.

Assays:
[1] = system: p-AKT1/2/3-S473 in KPL4 breast tumour cell line; assay: Cellular p-AKT1/2/3-S473 assay; format: cell-based; conditions: KPL4 breast tumour cell line, 2 hours treatment; read-out: pAKT-S743 median IC50
Outline: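 KPL4 cells (PIK3CA H1047R, HER2 0/E, hormone independent) were seeded at 60–80% confluency, cultured overnight, then exposed to compound for 2 h at 37 °C. pAKT-S473 and total AKT measured together by MSD Akt Duplex on 20 µg extract; pAKT expressed as % of total AKT, at least duplicate with independent repeats.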

[2] = system: p-AKT S473 in PC3 human prostate tumours; assay: In vivo xenograft mechanism of action study; design: species or system athymic nude mice; conditions: Mus musculus, po, PC3 tumours in nude mice, once 50 mg/kg p.o.
Source text: In Vivo Xenograft Mechanism of Action Study
To this extent PC3 human prostate tumours were xenografted onto athymic nude mice. PC3 tumour cells were cultivated according to ATCC protocols in recommended media contained 10% FCS and harvested for transplantation in a subconfluent (70%) state. 3×10^6 tumour cells suspended in 50% Matrigel were subcutaneously implantated into the inguinal region of male mice. Tumours were allowed to grow to the predetermined size of 60-80 mm^2. When the tumours were approximately in size, the animals were randomized to treatment and control groups (groups size: 9 animals) and treatment was started. Animals were treated once with 50 mg/kg compound or vehicle per oral administration (p.o.) carried out via a gastric tube. Treatment of each animal was based on individual body weight. At 2, 5 and 24 hours post treatment 3 animals each were sacrificed and the PC3 tumours excised. Tumour samples of approximately 5×5×5 mm were lysed on ice in MSD lysis buffer in the presence of protease and phosphatase inhibitors using Tissue Lyzer (Qiagen, Germany). The levels of p-AKT S473 in extracts from tumour tissue were analysed in an ELISA based assay. This assay is based on the “Akt Duplex” of the MULTI-SPOT® Assay System (Fa. Meso Scale Discovery, Cat# N41100B-1) following manufacturers instructions. Each assay used 20 μg of protein extract and measured total AKT and p-AKT content simultaneously in one well. All measurements where at least done in duplicates and confirmed by independent repetition.
Values for P-AKT are expressed as percentage of P-AKT level compared to total-AKT content of the extracts. Vehicle treated tumours were analyzed to determine the basal level of P-AKT in this model and used as a normalization control to determine the % P-AKT relative to vehicle levels.

[3] = system: KPL-4 breast cancer cell line; assay: Tumor cell proliferation assay (CellTiter-Glo, 72 h), KPL-4; format: cell-based; conditions: KPL4, 72h drug exposure
Outline: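 KPL-4 cells were treated with compound for 72 h at 37°C. Viability was measured as ATP by CellTiter-Glo luminescence, with a separate t=0 plate read after overnight attachment. A reference compound was run as standard.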

MCF7 = assay: Tumor cell proliferation assay (CellTiter-Glo, 72 h), MCF7; format: cell-based; conditions: Homo sapiens, 72h drug exposure
Description: Compounds were tested in a cell-based assay that measures the capacity of the compounds to inhibit tumour cell proliferation following a 72h drug exposure. Cell viability is determined using CellTiter-Glow® (CTG, Promega, cat# G7571/2/3). The CellTiter-Glo® Luminescent Cell Viability Assay is a homogeneous method to determine the number of viable cells in culture. Detection is based on using the luciferase reaction to measure the amount of ATP from viable cells. The amount of ATP in cells correlates with cell viability. Within minutes after a loss of membrane integrity, cells lose the ability to synthesize ATP, and endogenous ATPases destroy any remaining ATP; thus the levels of ATP fall precipitously.
Cells were plated at 3000-5000 cells/well (depending on the cell lines) in 90 μL growth medium on MTPs (Corning; #3603, black plate, clear flat bottom). For each cell line assayed, cells were plated onto a separate plate for determination of […] at t=0 hour and t=72 hour time points. Following overnight incubation at 37° C., chemiluminescence values for the t=0 samples were determined after adding 10 μl medium and 100 μl CTG solution according to manufacture protocol. Plates for the t=72 hour time points were treated with compounds diluted into growth medium at ten times final concentration added in 10 μL to the cell culture plate. Cells were then incubated for 72 hours at 37° C. Chemiluminescence values for the t=72 hour samples were determined. […] Experiments were controlled using a reference compound as standard.

[4] = molecular target: His-tagged human recombinant kinase full-length Akt1 (Homo sapiens (Human), UniProt P31749); assay: Akt1 kinase assay (TR-FRET); format: biochemical; conditions: 10 μM ATP; read-out: Akt1, median IC50
Chain of His-tagged human recombinant kinase full-length Akt1 (P31749 whole entry): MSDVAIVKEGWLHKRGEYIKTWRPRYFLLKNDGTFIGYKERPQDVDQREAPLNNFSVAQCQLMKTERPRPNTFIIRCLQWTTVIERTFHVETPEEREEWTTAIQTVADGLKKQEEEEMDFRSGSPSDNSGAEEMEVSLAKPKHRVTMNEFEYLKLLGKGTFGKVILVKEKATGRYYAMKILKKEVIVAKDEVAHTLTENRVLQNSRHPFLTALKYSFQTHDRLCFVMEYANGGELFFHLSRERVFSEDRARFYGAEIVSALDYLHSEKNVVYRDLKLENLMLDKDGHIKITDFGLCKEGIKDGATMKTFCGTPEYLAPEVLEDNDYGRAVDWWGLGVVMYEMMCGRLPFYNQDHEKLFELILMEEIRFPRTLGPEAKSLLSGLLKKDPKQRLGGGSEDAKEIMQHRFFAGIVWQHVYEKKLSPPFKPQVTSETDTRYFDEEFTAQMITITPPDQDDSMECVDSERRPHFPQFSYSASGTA
Outline: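 Full-length His-tagged Akt1 (about 0.05 ng/μl final) preincubated 15 min at 22 °C with compound in 50 mM TRIS/HCl pH 7.5, 5 mM MgCl2, 1 mM DTT, 0.02% Triton X-100; biotinylated peptide substrate. Phosphopeptide detected by TR-FRET (Eu-chelate antibody to streptavidin-XL665) after 1 h at 22 °C.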

[5] = system: p-4E-BP1-T70 in KPL4 breast tumour cell line; assay: Cellular p-4E-BP1-T70 assay; format: cell-based; conditions: 2 hours treatment, read-out: P4EBP1-T70 median IC50
Description: The molecular mechanism of action was investigated in a set of experiments to assess the inhibition of the PI3K-AKT-mTOR pathway in responsive cell lines such as KPL4 breast tumour cell line (PIK3CAH1047R, HER20/E and hormone independent). The phospho-substrates of PI3K-AKT-mTOR axis were used as the read-outs to reflect pathway inhibition. Cells were seeded at 60-80% confluency per well in 96-well cell culture plates. After overnight incubation at 37° C. 5% CO2, cells were treated with compounds and vehicle at 37° C. for 2 hours. Thereafter, cells were lysed in 150 μl lysis buffer and the levels of phospho-AKT at T308 and S473 and p-4E-BP1 at T70 sites were determined with the corresponding AlphaScreen® SureFire® assay kits (Perkin Elmer: 4E-BP1 Assay Kit Cat # TRG4E2S10K; Akt 1/2/3 p-Ser 473 #TGRA4S500 and Akt 1/2/3 p-Thr 308 #TGRA3S500 as well as IgG detection Kit #6760617M) as described in the manuals. All measurements where at least done in duplicates and confirmed by independent repetition.

[6] = 2 hours post treatment, read-out: P-AKT % relative to control at 2 hours
[7] = 5 hours post treatment, read-out: P-AKT % relative to control at 5 hours

SMILES | IC50 [1] | response vs control in vivo at 50 mg/kg [2, 6] | response vs control in vivo at 50 mg/kg [2, 7] | IC50 [3] | IC50 (MCF7) | IC50 [4] | IC50 [5]
NC1(c2ccc(-c3nc4ncc(-c5ccccc5)cn4c3-c3ccccc3)cc2)CCC1 [Example 1-9] | 770 nM | 32.2% | 21.1% | 2000 nM | – | – | –
COc1ccn2c(-c3ccccc3)c(-c3ccc(C4(N)CCC4)cc3)nc2n1 [Example 2-00, 1-[4-(7-methoxy-3-phenyl-imidazo[1,2-a]pyrimidin-2-yl)-phenyl]-cyclobutylamine] | – | 4.7% | 6.3% | – | – | – | –
NC(=O)c1ccc2nc(-c3ccc(C4(N)CCC4)cc3)c(-c3ccccc3)n2c1 [Example 2-18] | 33 nM | 8% | 7.7% | 500 nM | – | – | –
NC(=O)c1ccn2c(-c3ccccc3)c(-c3ccc(C4(N)CCC4)cc3)nc2c1 [Example 2-41] | 33 nM | 10.2% | 8.8% | 600 nM | – | – | –
COc1cc(Br)cn2c(-c3ccccc3)c(-c3ccc(C4(N)CCC4)cc3)nc12 [Example 2-52] | 49 nM | 34.9% | 47.9% | 1500 nM | 1100 nM | 19 nM | –
Cc1cc(C)c2nc(-c3ccc(C4(N)CCC4)cc3)c(-c3ccccc3)n2c1 [Example 2-73] | 235 nM | 9.1% | 9.3% | 1800 nM | 1700 nM | – | 3980 nM
NC1(c2ccc(-c3nc4c(F)cc(F)cn4c3-c3ccccc3)cc2)CCC1 [Example 2-75] | 79 nM | 5.5% | 6.2% | 1100 nM | 600 nM | 52 nM | 1600 nM
Cc1c(Cl)cn2c(-c3ccccc3)c(-c3ccc(C4(N)CCC4)cc3)nc2c1Br [Example 2-81] | 1100 nM | 33.6% | 69.6% | 1800 nM | 1700 nM | – | 3480 nM
Cc1cc(-c2cccnc2)c2nc(-c3ccc(C4(N)CCC4)cc3)c(-c3ccccc3)n2c1 [Example 2-90] | 337 nM | 51.6% | 53.7% | 1900 nM | 1700 nM | – | 1560 nM
Cc1cc(-c2ccn[nH]2)c2nc(-c3ccc(C4(N)CCC4)cc3)c(-c3ccccc3)n2c1 [Example 2-92] | 1400 nM | 34.6% | 22% | 4300 nM | 4300 nM | 229 nM | 1570 nM
Cc1cc(-c2cn[nH]c2)c2nc(-c3ccc(C4(N)CCC4)cc3)c(-c3ccccc3)n2c1 [Example 2-93] | 528 nM | 46% | 79.2% | 2000 nM | 1800 nM | – | 1420 nM
NC1(c2ccc(-c3nc4cc(-c5ncc[nH]5)ccn4c3-c3ccccc3)cc2)CCC1 [Example 2-114] | 25 nM | 47% | 57.2% | 800 nM | 700 nM | 71 nM | –
NC1(c2ccc(-c3nc4ccc(Cl)cn4c3-c3ccccc3)cc2)CCC1 [Example 2-140] | 115 nM | 26% | 18% | 1900 nM | 500 nM | – | 2660 nM
COc1cc(OC)c2nc(-c3ccc(C4(N)CCC4)cc3)c(-c3ccccc3)n2c1 [Example 2-146] | 43 nM | 17.5% | 22.3% | 700 nM | 600 nM | – | 636 nM
CCc1cc(OC)c2nc(-c3ccc(C4(N)CCC4)cc3)c(-c3ccccc3)n2c1 [Example 2-147] | 248 nM | – | – | 1700 nM | 500 nM | 148 nM | 1340 nM
COc1cc(-c2cnc[nH]2)cn2c(-c3ccccc3)c(-c3ccc(C4(N)CCC4)cc3)nc12 [Example 2-148] | 397 nM | – | – | 1900 nM | 1500 nM | 139 nM | 1810 nM
COc1cc(-c2ncc[nH]2)cn2c(-c3ccccc3)c(-c3ccc(C4(N)CCC4)cc3)nc12 [Example 2-149] | 576 nM | – | – | 2900 nM | 1800 nM | 198 nM | 1960 nM
Nc1ccn2c(-c3ccccc3)c(-c3ccc(C4(N)CCC4)cc3)nc2c1 [Example 2-151] | 482 nM | – | – | 1700 nM | 200 nM | 514 nM | 4810 nM
Nc1ccc2nc(-c3ccc(C4(N)CCC4)cc3)c(-c3ccccc3)n2c1 [Example 2-155] | 374 nM | – | – | 5500 nM | 1700 nM | 854 nM | 2220 nM
CC(=O)Nc1ccc2nc(-c3ccc(C4(N)CCC4)cc3)c(-c3ccccc3)n2c1 [Example 2-156] | 190 nM | – | – | 900 nM | 500 nM | 62 nM | 1210 nM
CS(=O)(=O)Nc1ccc2nc(-c3ccc(C4(N)CCC4)cc3)c(-c3ccccc3)n2c1 [Example 2-159] | 907 nM | – | – | 4700 nM | 2800 nM | 2990 nM | 3280 nM
C=Cc1cc(OC)c2nc(-c3ccc(C4(N)CCC4)cc3)c(-c3ccccc3)n2c1 [Example 2-160] | 349 nM | – | – | 1600 nM | 800 nM | 191 nM | 1380 nM
Cc1cccc2nc(-c3ccc(C4(N)CCC4)cc3)c(-c3ccccc3)n12 [Example 14-0, 1-[4-(5-methyl-3-phenylimidazo[1,2-a]pyridin-2-yl)phenyl]cyclobutanamine] | 1120 nM | – | – | 3100 nM | 1800 nM | 1500 nM | 8150 nM
